From paper PMC12304827 (British Journal of Clinical Pharmacology, 2025)

Tests used:
[1] = OC study 1: EE and LN PK with/without ritlecitinib 200 mg QD; type: in vivo, human; conditions: female, human, plasma, oral, healthy females; for AUC(0-t): AUClast
[2] = OC study 2: EE and LN PK with/without ritlecitinib 50 mg QD; type: in vivo, human; conditions: female, human, plasma, oral
CYP3A [3] = assay: Midazolam and efavirenz DDI study: midazolam PK with/without ritlecitinib
CYP1A2 [4] = assay: Caffeine DDI study: caffeine PK with/without ritlecitinib; type: in vivo, human; conditions: from caffeine DDI at ritlecitinib 200 mg QD
CYP3A [5] = assay: Itraconazole DDI study: ritlecitinib PK with/without itraconazole; type: in vivo, human
CYP = assay: Rifampicin DDI study: ritlecitinib PK with/without rifampicin; type: in vivo, human
CYP3A4/5 = assay: CYP time-dependent inhibition in human liver microsomes; type: in vitro ADME
CYP1A2 [6] = target: T1, CYP1A2 (Homo sapiens, UniProt P05177); assay: as above; type: in vitro ADME
T1 sequence (P05177 1-516): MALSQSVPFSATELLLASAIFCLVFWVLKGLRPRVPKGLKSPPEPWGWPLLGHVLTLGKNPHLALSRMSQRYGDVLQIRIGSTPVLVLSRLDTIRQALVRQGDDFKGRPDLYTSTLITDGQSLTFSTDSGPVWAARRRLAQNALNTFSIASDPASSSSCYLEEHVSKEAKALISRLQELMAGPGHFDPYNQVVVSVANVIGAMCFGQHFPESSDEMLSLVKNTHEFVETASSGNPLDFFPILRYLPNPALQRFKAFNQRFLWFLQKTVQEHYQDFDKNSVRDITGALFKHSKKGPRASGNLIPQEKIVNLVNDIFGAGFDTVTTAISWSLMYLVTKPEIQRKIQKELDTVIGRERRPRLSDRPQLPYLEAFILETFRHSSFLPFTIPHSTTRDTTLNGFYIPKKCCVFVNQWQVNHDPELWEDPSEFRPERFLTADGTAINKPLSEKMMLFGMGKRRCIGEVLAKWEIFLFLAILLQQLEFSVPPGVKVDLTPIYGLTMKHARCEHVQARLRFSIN

[7] = cited from earlier work
[8] = tested on: organic cation transporter 1 (OCT1); conditions: cited from earlier work
[9] = cited from earlier work; remark: listed apart in the source
[10] = adjusted geometric mean (reference), 1 Portia tablet (EE 30 μg and LN 150 μg) alone
[11] = adjusted geometric mean (test), 1 Portia tablet (EE 30 μg and LN 150 μg) on Day 10 of ritlecitinib 200 mg QD × 11 days
[12] = midazolam with ritlecitinib 200 mg QD × 11 days vs without
[13] = midazolam with ritlecitinib 200 mg QD × 11 days vs without, listed as midazolam
[14] = multiple 200-mg doses of itraconazole, ritlecitinib 30 mg
[15] = ritlecitinib 30 mg with itraconazole 200 mg QD × 5 days vs alone
[16] = ritlecitinib 50 mg with rifampicin 600 mg QD × 8 days vs alone
[17] = ritlecitinib 50 mg with rifampicin 600 mg QD × 8 days vs alone, listed as ritlecitinib

With `C#C[C@]1(O)CC[C@H]2[C@@H]3CCC4=CC(=O)CC[C@@H]4[C@H]3CC[C@@]21CC` [LN, levonorgestrel] the AUC(0-t) [1, 10] was 23.8 ng·h/mL, the AUC(0-t) [1, 11] was 26.8 ng·h/mL and the Cmax [1, 10] was 2.94 ng/mL. The Cmax [1, 11] was 3.03 ng/mL, the AUC(0-t) ([2]; 50 mg) was 29.6 ng·h/mL and the Cmax ([2]; 50 mg, Cmax, adjusted geometric mean (test), 1 Portia tablet on Day 10 of ritlecitinib 50 mg QD × 13 days, healthy females) was 2.32 ng/mL. For the same compound, the AUC(0-t) ([2]; 1 Portia tablet) was 33.7 ng·h/mL.
In the case of `Cc1ncc2n1-c1ccc(Cl)cc1C(c1ccccc1F)=NC2` [Midazolam, midazolam], the “AUCinf, ratio (test/reference) of adjusted geometric means (90% CI)” value (“AUCinf, ratio (test/reference) … (90% CI)” below) (CYP3A [3]; [12]) is reported as 269.4 (216.1–335.9) %, the “AUClast, ratio (test/reference) of adjusted geometric means (90% CI)” value (shortened to “AUClast, ratio (test/reference) … (90% CI)”) (CYP3A [3]; [12]) is reported as 269.3 (215.8–336.1) % and the “Cmax, ratio (test/reference) of adjusted geometric means (90% CI)” value (“Cmax, ratio (test/reference) … (90% CI)” below) (CYP3A [3]; [12]) is reported as 180.8 (148.1–220.6) %. The “AUCinf, ratio (test/reference) … (90% CI)” value (CYP3A [3]; [13]) was 269.4%, the “Cmax, ratio (test/reference) … (90% CI)” value (CYP3A [3]; [13]) was 180.8% and the “Fold increase of midazolam AUCinf in the presence of ritlecitinib” value (CYP3A [3]; ritlecitinib 200 mg QD) was 2.7 fold. For the same compound, the “Fold increase of midazolam Cmax in the presence of ritlecitinib” value (CYP3A [3]; ritlecitinib 200 mg QD) was 1.8 fold, the “Increase of midazolam AUCinf in the presence of ritlecitinib” value (CYP3A [3]; ritlecitinib 200 mg QD) was “≈ 169%” and the “Fold increase of midazolam AUCinf in the presence of ritlecitinib” value (CYP3A [3]; ritlecitinib 200 mg QD, listed as midazolam) was “≈ 2.7 fold”.
For `C=CC(=O)N1C[C@H](Nc2ncnc3[nH]ccc23)CC[C@@H]1C` [Ritlecitinib, ritlecitinib], the “Classification as clinical CYP1A2 inhibitor” value (CYP1A2 [4]) was “moderate inhibitor”, the AUC(0-inf) (CYP3A [5]; human, plasma, oral, 30 mg) was 268 ng·h/mL and the AUC(0-t) (CYP3A [5]; human, plasma, oral, 30 mg) was 264 ng·h/mL. For the same compound, the Cmax (CYP3A [5]; human, plasma, oral, 30 mg) was 153 ng/mL, the “Effect of itraconazole on ritlecitinib Cmax (in words)” value (CYP3A [5]; [14]) was “similar” and the “Increase of ritlecitinib AUCinf with itraconazole” value (CYP3A [5]; [14]) was “≈ 15%”. The “AUCinf, ratio (test/reference) … (90% CI)” value (CYP3A [5]; [15]) was 115.1 (104.6–126.7) %, the “AUClast, ratio (test/reference) … (90% CI)” value (CYP3A [5]; [15]) was 115.1 (104.4–126.7) % and the “Cmax, ratio (test/reference) … (90% CI)” value (CYP3A [5]; [15]) was 102.5 (82.8–127.0) %. The “Decrease of ritlecitinib AUCinf with rifampicin” value (CYP; multiple rifampicin doses, ritlecitinib 50 mg) was “≈ 45%”, the “AUCinf, ratio (test/reference) … (90% CI)” value (CYP; [16]) was 55.8 (51.9–59.9) % and the “AUClast, ratio (test/reference) … (90% CI)” value (CYP; [16]) was 55.7 (51.9–59.7) %. For the same compound, the “Cmax, ratio (test/reference) … (90% CI)” value (CYP; [16]) was 75.1 (63.3–89.1) %, the “AUCinf, ratio (test/reference) … (90% CI)” value (CYP; [17]) was 55.8% and the “Cmax, ratio (test/reference) … (90% CI)” value (CYP; [17]) was 75.1%. The “Clinical relevance of exposure change with rifampicin (in words)” value (CYP; typical exposure range 0.5- to 2-fold of mean exposure) was “not decreased to clinically relevant levels”, the “Time-dependent inhibition of CYP3A in vitro (in words)” value (CYP3A4/5) was “time dependent inhibitor” and the “Time-dependent inhibition of CYP1A2 in vitro (in words)” value (CYP1A2 [6]) was “time dependent inhibitor”. For the same compound, the “Contribution of any single pathway to metabolism” value [7] was no more than 25%, the “Predicted collective contribution of CYPs to metabolic disposition” value [7] was “≈ 47%” and the “Predicted contribution of glutathione conjugation to metabolic disposition” value [7] was “≈ 24%”. For the same compound, the “Inhibition of OCT1 (in words)” value [8] was “inhibitor”, the “Half-life (t½) of ritlecitinib” value ([9]; quoted for the study design, ref previous studies) was less than 2 h and the “Dose proportionality of exposure (in words)” value ([9]; up to 200 mg) was “approximately dose‐proportionally”. The “Classification as clinical CYP3A inhibitor” value (CYP3A [3]; from midazolam DDI at ritlecitinib 200 mg QD) was “moderate inhibitor”.
